How the values were obtained:
[1] = test system: Sprague-Dawley rats; experiment: Intranasal delivery of gentamicin, serum gentamicin by fluorescence polarization immunoassay; type: in vivo; settings: 5 mg/kg gentamicin, 1.32 mM enhancer
Protocol: Experimental Conditions: Sprague-Dawley rats (male, 205-240 g) were anesthetized by intramuscular injection of 7.5 mg/kg xylazine with 50 mg/kg ketamine. Gentamicin (40 μl) was administered intranasally at time 0. Formulations contained 5 mg/kg gentamicin, with and without 1.32 mM QH-957. Blood was withdrawn from the tail vein at various timepoints. Serum gentamicin levels were measured using a fluorescence polarization immunoassay. The assay was linear from 0.3-10.0 μg/ml, and the limit of detection was 0.3 μg/ml. A value of 0.3 μg/ml was used in plotting the timepoints with serum levels below the limit of detection. Groups of 3 animals were used. Data are presented as ±standard error of the mean.
Experimental Conditions: Sprague-Dawley rats (male, 205-240 g) were anesthetized by intramuscular injection of 7.5 mg/kg xylazine with 50 mg/kg ketamine. Gentamicin (40 μl) was administered intranasally at time 0. […] Serum gentamicin levels were measured using a fluorescence polarization immunoassay. […]
Sprague-Dawley rats (male, 205-240 g) were anesthetized by intramuscular injection of 7.5 mg/kg xylazine with 50 mg/kg ketamine. […] Serum gentamicin levels were measured using a fluorescence polarization immunoassay. […] The area under the serum gentamicin concentration curve (AUC) was calculated using the trapezoidal rule. […]

[2] = literature values; cited from earlier work
[3] = test system: rabbits; settings: nasal administration; cited from earlier work

enhanced intranasal permeation of gentamicin (serum gentamicin levels) [1]	SMILES	concentration needed for drug delivery [2]	total absorption of β-interferon relative to intravenous administration [3]
did not	CC1(C)[C@@H](O[C@H]2O[C@H](C(=O)O)[C@@H](O)[C@H](O)[C@H]2O[C@@H]2O[C@H](C(=O)O)[C@@H](O)[C@H](O)[C@H]2O)CC[C@]2(C)[C@H]3C(=O)C=C4[C@@H]5C[C@@](C)(C(=O)O)CC[C@]5(C)CC[C@@]4(C)[C@]3(C)CC[C@@H]12 [glycyrrhizic acid]	23.8 mM	–
did not	C[C@H](CCC(=O)NCC(=O)[O-])[C@H]1CC[C@H]2[C@@H]3[C@H](O)C[C@@H]4C[C@H](O)CC[C@]4(C)[C@H]3C[C@H](O)[C@]12C.[Na+] [sodium glycocholate]	20.5 mM	2.2%

— patent US5650398A, “Drug delivery enhancement via modified saponins” (Cambridge Biotech Corporation, priority 1995, dated 1997)
